According to article PMC7181660, “A novel specific PERK activator reduces toxicity and extends survival in Huntington's disease models” (Scientific Reports, 2020):

How the values were obtained:
Assay in all cases: biochemical
Assay type in all cases: biochemical
panel of 391 kinases [1] = target: panel of 391 kinases (Homo sapiens, UniProt Q96SB4); conditions: SRPK1, MK-28 1 µM, ATP 1 µM
panel of 391 kinases [2] = target: panel of 391 kinases (Homo sapiens, UniProt Q9H1R3); conditions: MLCK2/MYLK2, MK-28 1 µM, ATP 1 µM
panel of 391 kinases [3] = target: panel of 391 kinases (Homo sapiens, UniProt P35626); conditions: GRK3, MK-28 1 µM, ATP 1 µM
panel of 391 kinases [4] = target: panel of 391 kinases (Homo sapiens, UniProt Q00537); conditions: CDK17/cyclin Y (PCTK2), MK-28 1 µM, ATP 1 µM
panel of 391 kinases [5] = target: panel of 391 kinases (Homo sapiens, UniProt P52333); conditions: JAK3, MK-28 1 µM, ATP 1 µM
panel of 391 kinases [6] = target: panel of 391 kinases (Homo sapiens, UniProt P49761); conditions: CLK3, MK-28 1 µM, ATP 1 µM
panel of 391 kinases [7] = target: panel of 391 kinases (Homo sapiens, UniProt P25098); conditions: GRK2, MK-28 1 µM, ATP 1 µM
panel of 391 kinases [8] = target: panel of 391 kinases (Homo sapiens, UniProt Q86UX6); conditions: STK32C/YANK3, MK-28 1 µM, ATP 1 µM
panel of 391 kinases [9] = target: panel of 391 kinases (Homo sapiens, UniProt Q8TD19); conditions: NEK9, MK-28 1 µM, ATP 1 µM
panel of 391 kinases [10] = target: panel of 391 kinases (Homo sapiens, UniProt O14578); conditions: STK21/CIT, MK-28 1 µM, ATP 1 µM
panel of 391 kinases [11] = target: panel of 391 kinases (Homo sapiens, UniProt P06213); conditions: IR, MK-28 1 µM, ATP 1 µM
panel of 391 kinases [12] = target: panel of 391 kinases (Homo sapiens, UniProt Q8N5S9); conditions: CAMKK1, MK-28 1 µM, ATP 1 µM
panel of 391 kinases [13] = target: panel of 391 kinases (Homo sapiens, UniProt Q86Z02); conditions: HIPK1, MK-28 1 µM, ATP 1 µM
panel of 391 kinases [14] = target: panel of 391 kinases (Homo sapiens, UniProt P29597); conditions: TYK2, MK-28 1 µM, ATP 1 µM
panel of 391 kinases [15] = target: panel of 391 kinases (Homo sapiens, UniProt O15530); conditions: PDK1/PDPK1, MK-28 1 µM, ATP 1 µM
panel of 391 kinases [16] = target: panel of 391 kinases (Homo sapiens, UniProt Q9Y6E0); conditions: MST3/STK24, MK-28 1 µM, ATP 1 µM
panel of 391 kinases [17] = target: panel of 391 kinases (Homo sapiens, UniProt Q8N4C8); conditions: MINK/MINK1, MK-28 1 µM, ATP 1 µM
panel of 391 kinases [18] = target: panel of 391 kinases (Homo sapiens, UniProt Q96KB5); conditions: PBK/TOPK, MK-28 1 µM, ATP 1 µM
panel of 391 kinases [19] = target: panel of 391 kinases (Homo sapiens, UniProt Q8WTQ7); conditions: GRK7, MK-28 1 µM, ATP 1 µM
panel of 391 kinases [20] = target: panel of 391 kinases (Homo sapiens, UniProt Q15303); conditions: ERBB4/HER4, MK-28 1 µM, ATP 1 µM
panel of 391 kinases [21] = target: panel of 391 kinases (Homo sapiens, UniProt Q13464); conditions: ROCK1, MK-28 1 µM, ATP 1 µM
panel of 391 kinases [22] = target: panel of 391 kinases (Homo sapiens, UniProt P50613); conditions: CDK7/cyclin H, MK-28 1 µM, ATP 1 µM
panel of 391 kinases [23] = target: panel of 391 kinases (Homo sapiens, UniProt P09769); conditions: FGR, MK-28 1 µM, ATP 1 µM
panel of 391 kinases [24] = target: panel of 391 kinases (Homo sapiens, UniProt Q9NYY3); conditions: PLK2, MK-28 1 µM, ATP 1 µM
panel of 391 kinases [25] = target: panel of 391 kinases (Homo sapiens, UniProt Q9HBH9); conditions: MNK2, MK-28 1 µM, ATP 1 µM
panel of 391 kinases [26] = target: panel of 391 kinases (Homo sapiens, UniProt Q13557); conditions: CAMK2d, MK-28 1 µM, ATP 1 µM
[27] = read-out: % Enzyme Activity (relative to DMSO controls)

## CN(/N=C\c1ccc(O)c(O)c1)c1nc(-c2ccccc2)cc(-c2ccccc2)n1 [MK-28]
Panel of 391 kinases [1]
  % Enzyme Activity (relative to DMSO controls): 103.25%
Panel of 391 kinases [1]; [27]
  remaining activity at 1 µM: 104%
Panel of 391 kinases [2]
  % Enzyme Activity (relative to DMSO controls): 95.96%
Panel of 391 kinases [2]; [27]
  remaining activity at 1 µM: 96.4%
Panel of 391 kinases [3]
  % Enzyme Activity (relative to DMSO controls): 99.99%
Panel of 391 kinases [3]; [27]
  remaining activity at 1 µM: 102%
Panel of 391 kinases [4]
  % Enzyme Activity (relative to DMSO controls): 104.03%
Panel of 391 kinases [4]; [27]
  remaining activity at 1 µM: 109%
Panel of 391 kinases [5]
  % Enzyme Activity (relative to DMSO controls): 104.48%
Panel of 391 kinases [5]; [27]
  remaining activity at 1 µM: 106%
Panel of 391 kinases [6]
  % Enzyme Activity (relative to DMSO controls): 105.09%
Panel of 391 kinases [6]; [27]
  remaining activity at 1 µM: 110%
Panel of 391 kinases [7]
  % Enzyme Activity (relative to DMSO controls): 99.37%
Panel of 391 kinases [7]; [27]
  remaining activity at 1 µM: 99.8%
Panel of 391 kinases [8]
  % Enzyme Activity (relative to DMSO controls): 104.62%
Panel of 391 kinases [8]; [27]
  remaining activity at 1 µM: 112%
Panel of 391 kinases [9]
  % Enzyme Activity (relative to DMSO controls): 96.03%
Panel of 391 kinases [9]; [27]
  remaining activity at 1 µM: 101%
Panel of 391 kinases [10]
  % Enzyme Activity (relative to DMSO controls): 95.45%
Panel of 391 kinases [10]; [27]
  remaining activity at 1 µM: 97.6%
Panel of 391 kinases [11]
  % Enzyme Activity (relative to DMSO controls): 92.32%
Panel of 391 kinases [11]; [27]
  remaining activity at 1 µM: 94.4%
Panel of 391 kinases [12]
  % Enzyme Activity (relative to DMSO controls): 101.88%
Panel of 391 kinases [12]; [27]
  remaining activity at 1 µM: 102%
Panel of 391 kinases [13]
  % Enzyme Activity (relative to DMSO controls): 100.46%
Panel of 391 kinases [13]; [27]
  remaining activity at 1 µM: 101%
Panel of 391 kinases [14]
  % Enzyme Activity (relative to DMSO controls): 90.72%
Panel of 391 kinases [14]; [27]
  remaining activity at 1 µM: 91.3%
Panel of 391 kinases [15]
  % Enzyme Activity (relative to DMSO controls): 99.62%
Panel of 391 kinases [15]; [27]
  remaining activity at 1 µM: 100%
Panel of 391 kinases [16]
  % Enzyme Activity (relative to DMSO controls): 121.45%
Panel of 391 kinases [16]; [27]
  remaining activity at 1 µM: 122%
Panel of 391 kinases [17]
  % Enzyme Activity (relative to DMSO controls): 95.98%
Panel of 391 kinases [17]; [27]
  remaining activity at 1 µM: 98.7%
Panel of 391 kinases [18]
  % Enzyme Activity (relative to DMSO controls): 93.64%
Panel of 391 kinases [18]; [27]
  remaining activity at 1 µM: 94.2%
Panel of 391 kinases [19]
  % Enzyme Activity (relative to DMSO controls): 97.74%
Panel of 391 kinases [19]; [27]
  remaining activity at 1 µM: 98.5%
Panel of 391 kinases [20]
  % Enzyme Activity (relative to DMSO controls): 97.84%
Panel of 391 kinases [20]; [27]
  remaining activity at 1 µM: 99.3%
Panel of 391 kinases [21]
  % Enzyme Activity (relative to DMSO controls): 94.86%
Panel of 391 kinases [21]; [27]
  remaining activity at 1 µM: 99.6%
Panel of 391 kinases [22]
  % Enzyme Activity (relative to DMSO controls): 106.19%
Panel of 391 kinases [22]; [27]
  remaining activity at 1 µM: 108%
Panel of 391 kinases [23]
  % Enzyme Activity (relative to DMSO controls): 99.92%
Panel of 391 kinases [23]; [27]
  remaining activity at 1 µM: 100%
Panel of 391 kinases [24]
  % Enzyme Activity (relative to DMSO controls): 97.72%
Panel of 391 kinases [24]; [27]
  remaining activity at 1 µM: 98.5%
Panel of 391 kinases [25]
  % Enzyme Activity (relative to DMSO controls): 105.57%
Panel of 391 kinases [25]; [27]
  remaining activity at 1 µM: 114%
Panel of 391 kinases [26]
  % Enzyme Activity (relative to DMSO controls): 94.06%
Panel of 391 kinases [26]; [27]
  remaining activity at 1 µM: 94.2%
